These results are taken from patent publication US20260250325A1, “Antiviral Polypeptide Membrane Fusion Inhibitor, and Preparation Method and Application Thereof” (priority 2025, published 2026).

One data set has as its system RSV A long virus strain. The class given is cell-based. The note with it: RSV A long virus strain, HEp-2 cells, plaque reduction, 1 day; read-out: IC50. The procedure, abridged: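 HEp-2 cells (30000/well) infected with 100 PFU virus premixed 1 h with compound (8 concentrations, duplicate); after 2 h adsorption, cultured 1 day at 37 °C under 0.8% CMC overlay with compound. Plaques immunostained (RSV antibody, TrueBlue) and counted; IC50 and CC50 by non-linear fitting of % inhibition versus virus and cell controls.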

Data set [1] can be described thus: Cytotoxicity test in HEp-2 cells (CCK8 cell viability). The class given is cell-based. The note with it: human; HEp-2 cells, CCK8, 1 day; read-out: CC50. The procedure, abridged:
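HEp-2 cells seeded at 30,000/well, cultured overnight at 37° C./5% CO2, then exposed to diluted compound for 1 day in 0.5% DMSO. Viability read by CCK8, normalised to untreated-cell and medium-only controls; CC50 from four-parameter variable-slope fit.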

A further data set has as its target T1, hMPV-N46 (127-172) (Human metapneumovirus, UniProt Q6WB98).
T1 construct: hMPV-N46 (127-172)
Kind of data set: SPR affinity to hMPV-N46 coupled on CM5 chip. The class given is binding. The protocol:
(§1) hMPV and hPIV were two viruses having a typical Class I fusion protein-F protein. An F protein precursor F0 was cracked into F1 and F2 subunits. […] When the compound flowed through a chip surface, changes in an SPR signal were monitored in real time, binding and dissociation processes were recorded, and a binding rate constant (ka) and a dissociation rate constant (kd) were further obtained through kinetic analysis, thereby calculating an equilibrium dissociation constant (KD=kd/ka).
(§2) A CM5 chip with a catalog number 29149603, an amino coupling reagent kit with a catalog number BR100050, HBS-EP+Buffer (10×), sodium acetate (pH 4.0), and a 10 mM glycine-HCl buffer (pH 2.0) were all purchased from GE Health.
(§3) CM5 chip coupling: Channels 2 and 4 of the CM5 chip were activated for 7 min by using a freshly-prepared mixture of 50 mM Hydroxy succinimide (NHS) and 200 mM 1-(3-Dimethylaminopropyl)-3-ethylcarbodiimide (EDC) according to 1:1; and then, hMPV-N46 or hPIV-N51 was diluted and dissolved with sodium acetate with 4.0 pH to a concentration of 30 μM, with a flow rate of 10 μl/min and time of 600 s. An experimental buffer was HBS-EP+buffer (1×). Finally, the chip was blocked with 1 M ethanolamine. The instrument was set to a temperature of 25° C.
(§4) Affinity detection: the buffer used in the experiment was HBS-EP+buffer (1×), and a multi-cycle dynamic mode was used. Channels 1 and 3 of the chip served as blank reference channels; polypeptides to be detected sequentially flowed through Channels 2 and 4 at concentrations of 0 μM, 0.04 µM, 0.12 µM, 0.37 μM, 1.11 µM, 3.33 µM, 10 µM, and 30 μM; the flow rate was 30 μl/min, binding was performed for 180 s, and dissociation was performed for 120 s. Finally, the chip was regenerated by injecting 10 mM glycine (pH 2.0). The instrument was set to a temperature of 25° C.

In the next data set the target is T2, hPIV-N51 (139-189) (Human parainfluenza 3 virus, UniProt P06828).
T2 construct: hPIV-N51 (139-189)
The data set is described as follows: SPR affinity to hPIV-N51 coupled on CM5 chip. The class given is binding. As to the method: as §1, §2, §3, §4

Where a SMILES comes first, the peptide text is derived from it. The star is where a group is joined. Succinyl(4-O-cholesteryl) = CC(C)CCC[C@@H](C)[C@H]1CC[C@H]2[C@@H]3CC=C4C[C@@H](OC(=O)CCC(=O)*)CC[C@]4(C)[C@H]3CC[C@]12C; X1 = CC(C)CCCC(C)C1CCC2C3CC=C4CC(OC(=O)CCC(=O)*)CCC4(C)C3CCC12C

T1 sequence (Q6WB98 127-172): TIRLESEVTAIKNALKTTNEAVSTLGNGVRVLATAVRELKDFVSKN
T2 sequence (P06828 139-189): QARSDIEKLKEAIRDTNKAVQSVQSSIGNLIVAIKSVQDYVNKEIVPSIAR

In the case of `CC[C@H](C)[C@H](NC(=O)[C@H](CCCCN)NC(=O)[C@H](CCCCN)NC(=O)[C@H](CC(C)C)NC(=O)[C@H](CO)NC(=O)[C@H](CCC(=O)O)NC(=O)[C@H](CCC(=O)O)NC(=O)[C@@H](NC(=O)[C@H](CCCCN)NC(=O)[C@H](CCCCN)NC(=O)[C@H](CC(N)=O)NC(=O)[C@@H](NC(=O)[C@H](CCC(=O)O)NC(=O)[C@H](CCC(=O)O)NC(=O)[C@@H](NC(=O)[C@H](CCCCN)NC(=O)[C@H](CCCCN)NC(=O)[C@H](CC(=O)O)NC(=O)[C@H](Cc1ccccc1)NC(=O)[C@H](CCC(=O)O)NC(=O)[C@H](CC(=O)O)NC(=O)[C@H](Cc1c[nH]c2ccccc12)NC(C)=O)[C@@H](C)CC)C(C)C)[C@@H](C)CC)C(=O)N[C@@H](CCC(=O)O)C(=O)N[C@@H](CCC(=O)O)C(=O)N[C@@H](CO)C(=O)N[C@@H](CC(=O)O)C(=O)N[C@@H](CCCCN)C(=O)N[C@@H](CCCCN)C(=O)N[C@@H](CC(C)C)C(=O)N[C@@H](CCC(=O)O)C(=O)N[C@@H](C)C(=O)N[C@@H](C)C(=O)N[C@@H](C)C(=O)N[C@@H](CCCCN)C(=O)N[C@@H](CCCCNC(=O)CCC(=O)O[C@H]1CC[C@@]2(C)C(=CC[C@H]3[C@@H]4CC[C@H]([C@H](C)CCCC(C)C)[C@@]4(C)CC[C@@H]32)C1)C(N)=O` [Compound 13] (Ac-WDEFDKKIEEVNKKIEESLKKIEESDKKLEAAAKK(Succinyl(4-O-cholesteryl))-NH2), the IC50 – broadly, the midpoint of a concentration-inhibition curve – with RSV A long virus strain is 0.013 µM. The CC50 (commonly the concentration giving 50% cytotoxicity) at 1 day in data set [1] came out at 30.7 µM. In addition, the figures for the Kd on hMPV-N46 (127-172) and on hPIV-N51 (139-189) were 3.21 µM and 2.28 µM, respectively.

For the compound `CC[C@H](C)[C@H](NC(=O)[C@H](CCCCN)NC(=O)[C@H](CCCCN)NC(=O)[C@H](CC(C)C)NC(=O)[C@H](CO)NC(=O)[C@H](CCC(=O)O)NC(=O)[C@H](CCC(=O)O)NC(=O)[C@@H](NC(=O)[C@H](CCCCN)NC(=O)[C@H](CCCCN)NC(=O)[C@H](CC(N)=O)NC(=O)[C@@H](NC(=O)[C@H](CCC(=O)O)NC(=O)[C@H](CCC(=O)O)NC(=O)[C@@H](NC(=O)[C@H](CCCCN)NC(=O)[C@H](CCCCN)NC(=O)[C@H](CCCCN)NC(=O)[C@H](CC(=O)O)NC(=O)[C@H](Cc1ccccc1)NC(=O)[C@H](CCC(=O)O)NC(=O)[C@H](CC(=O)O)NC(C)=O)[C@@H](C)CC)C(C)C)[C@@H](C)CC)C(=O)N[C@@H](CCC(=O)O)C(=O)N[C@@H](CCC(=O)O)C(=O)N[C@@H](CO)C(=O)N[C@@H](CC(=O)O)C(=O)N[C@@H](CCCCN)C(=O)N[C@@H](CCCCN)C(=O)N[C@@H](CC(C)C)C(=O)N[C@@H](CCC(=O)O)C(=O)N[C@@H](CCC(=O)O)C(=O)N[C@H](C(=O)NCC(=O)N[C@@H](CO)C(=O)NCC(=O)N[C@@H](CO)C(=O)NCC(=O)N[C@@H](CCCCNC(=O)CCC(=O)O[C@H]1CC[C@@]2(C)C(=CC[C@H]3[C@@H]4CC[C@H]([C@H](C)CCCC(C)C)[C@@]4(C)CC[C@@H]32)C1)C(N)=O)C(C)C` [Compound 15] (Ac-DEFDKKKIEEVNKKIEESLKKIEESDKKLEEVGSGSGK(Succinyl(4-O-cholesteryl))-NH2), the 50% inhibitory concentration (IC50) in the data set on RSV A long virus strain came to 0.0104 µM. Moreover, the CC50 at 1 day in data set [1] worked out at 8.9 µM. The Kd (in general, a measure of binding affinity in units of concentration) at hMPV-N46 (127-172) stood at 0.0381 µM; at hPIV-N51 (139-189), 1.39 µM.

Turning to `CC[C@H](C)[C@H](NC(=O)[C@H](CCCCN)NC(=O)[C@H](CCCCN)NC(=O)[C@H](CC(C)C)NC(=O)[C@H](CO)NC(=O)[C@H](CCC(=O)O)NC(=O)[C@H](CCC(=O)O)NC(=O)[C@@H](NC(=O)[C@H](CCCCN)NC(=O)[C@H](CCCCN)NC(=O)[C@H](CC(N)=O)NC(=O)[C@@H](NC(=O)[C@H](CCC(=O)O)NC(=O)[C@H](CCC(=O)O)NC(=O)[C@@H](NC(=O)[C@H](CCCCN)NC(=O)[C@H](CCCCN)NC(=O)[C@H](CC(=O)O)NC(=O)[C@H](Cc1ccccc1)NC(=O)[C@H](CCC(=O)O)NC(=O)[C@H](CC(=O)O)NC(=O)[C@H](CO)NC(C)=O)[C@@H](C)CC)C(C)C)[C@@H](C)CC)C(=O)N[C@@H](CCC(=O)O)C(=O)N[C@@H](CCC(=O)O)C(=O)N[C@@H](CO)C(=O)N[C@@H](CC(=O)O)C(=O)N[C@@H](CCCCN)C(=O)N[C@@H](CCCCN)C(=O)N[C@@H](CC(C)C)C(=O)N[C@@H](CCC(=O)O)C(=O)N[C@@H](C)C(=O)N[C@@H](C)C(=O)N[C@@H](C)C(=O)N[C@@H](CCCCN)C(=O)N[C@@H](CCCCNC(=O)CCC(=O)O[C@H]1CC[C@@]2(C)C(=CC[C@H]3[C@@H]4CC[C@H]([C@H](C)CCCC(C)C)[C@@]4(C)CC[C@@H]32)C1)C(N)=O` [Compound 16] (Ac-SDEFDKKIEEVNKKIEESLKKIEESDKKLEAAAKK(Succinyl(4-O-cholesteryl))-NH2), in the data set on RSV A long virus strain, the IC50 turned out to be 0.0103 µM. Besides, in data set [1], the 50% cytotoxic concentration (CC50) at 1 day came out at 17.1 µM. The Kd on hMPV-N46 (127-172) stood at 3.06 µM; at hPIV-N51 (139-189), 5.4 µM.

As for `CC[C@H](C)[C@H](NC(=O)[C@H](CCCCN)NC(=O)[C@H](CCCCN)NC(=O)[C@H](CC(C)C)NC(=O)[C@H](CO)NC(=O)[C@H](CCC(=O)O)NC(=O)[C@H](CCC(=O)O)NC(=O)[C@@H](NC(=O)[C@H](CCCCN)NC(=O)[C@H](CCCCN)NC(=O)[C@H](CC(N)=O)NC(=O)[C@@H](NC(=O)[C@H](CCC(=O)O)NC(=O)[C@H](CCC(=O)O)NC(=O)[C@@H](NC(=O)[C@H](CCCCN)NC(=O)[C@H](CCCCN)NC(=O)[C@H](CC(=O)O)NC(=O)[C@H](Cc1ccccc1)NC(=O)[C@H](CCC(=O)O)NC(=O)[C@H](CC(=O)O)NC(=O)[C@H](CO)NC(C)=O)[C@@H](C)CC)C(C)C)[C@@H](C)CC)C(=O)N[C@@H](CCC(=O)O)C(=O)N[C@@H](CCC(=O)O)C(=O)N[C@@H](CO)C(=O)N[C@@H](CC(=O)O)C(=O)N[C@@H](CCCCN)C(=O)N[C@@H](CCCCN)C(=O)N[C@@H](CC(C)C)C(=O)NCC(=O)N[C@@H](CO)C(=O)NCC(=O)N[C@@H](CO)C(=O)NCC(=O)N[C@@H](CCCCNC(=O)CCC(=O)O[C@H]1CC[C@@]2(C)C(=CC[C@H]3[C@@H]4CC[C@H]([C@H](C)CCCC(C)C)[C@@]4(C)CC[C@@H]32)C1)C(N)=O` [Compound 20] (Ac-SDEFDKKIEEVNKKIEESLKKIEESDKKLGSGSGK(Succinyl(4-O-cholesteryl))-NH2), in the data set on RSV A long virus strain, the concentration for half-maximal inhibition (IC50) was determined as 0.0198 µM. The CC50 at 1 day in data set [1] worked out at 29 µM. Also, the dissociation constant (Kd) on hMPV-N46 (127-172) amounted to 19.1 µM; on hPIV-N51 (139-189), 6.8 µM.

Turning to `CC[C@H](C)[C@H](NC(=O)[C@H](CCCCN)NC(=O)[C@H](CCCCN)NC(=O)[C@H](CC(C)C)NC(=O)[C@H](CO)NC(=O)[C@H](CCC(=O)O)NC(=O)[C@H](CCC(=O)O)NC(=O)[C@@H](NC(=O)[C@H](CCCCN)NC(=O)[C@H](CCCCN)NC(=O)[C@H](CC(N)=O)NC(=O)[C@@H](NC(=O)[C@H](CCC(=O)O)NC(=O)[C@H](CCC(=O)O)NC(=O)[C@@H](NC(=O)[C@H](CCCCN)NC(=O)[C@H](CCCCN)NC(=O)[C@H](CC(=O)O)NC(=O)[C@H](Cc1ccccc1)NC(=O)[C@H](CCC(=O)O)NC(=O)[C@H](CC(=O)O)NC(C)=O)[C@@H](C)CC)C(C)C)[C@@H](C)CC)C(=O)N[C@@H](CCC(=O)O)C(=O)N[C@@H](CCC(=O)O)C(=O)N[C@@H](CO)C(=O)N[C@@H](CC(=O)O)C(=O)N[C@@H](CCCCN)C(=O)N[C@@H](CCCCN)C(=O)N[C@@H](CC(C)C)C(=O)N[C@@H](CCC(=O)O)C(=O)N[C@@H](CCC(=O)O)C(=O)N[C@H](C(=O)N[C@@H](CCC(=O)O)C(=O)N[C@@H](C)C(=O)N[C@@H](C)C(=O)N[C@@H](C)C(=O)N[C@@H](CCCCN)C(=O)N[C@@H](CCCCNC(=O)CCC(=O)OC1CCC2(C)C(=CCC3C2CCC2(C)C(C(C)CCCC(C)C)CCC32)C1)C(N)=O)C(C)C` (some centres unmarked) [Compound 21] (Ac-DEFDKKIEEVNKKIEESLKKIEESDKKLEEVEAAAKK(X1)-NH2), in the data set with RSV A long virus strain, the concentration for half-maximal inhibition (IC50) was found to be 0.0146 µM. In addition, the CC50 at 1 day in data set [1] amounted to 18.3 µM.

Turning to “Ac-SLEQVNEKINQSLAFIRKSDEINQSDEEVNKSDELLEAAAKK-NH2 [Compound 50]”, the IC50 with RSV A long virus strain worked out at 0.0151 µM. The CC50 at 1 day in data set [1] worked out at 32.6 µM.
